Measured values as given in patent US10668040B2, “Treatment of urea cycle disorders in neonates and infants” (Horizon Therapeutics, LLC, priority 2017, dated 2020).

Key:
Type in all cases: in vivo, human
UCD patients [1] = assay: HPN-100-009 (Example 2): treatment-emergent, serious and non-serious adverse events; details: Age 2 Months to <2 Years
Excerpt: Number of Subjects with Treatment-Emergent Adverse Events (TEAEs), Serious TEAEs, Deaths, and Discontinuations Due to TEAEs.
End point description. An adverse event (AE) was any untoward medical occurrence, whether or not the event is considered related to the study drug. […] TEAEs were defined as AEs with an onset date on or after the first dose of study medication until study discontinuation. The Investigator assessed the causal relationship of each TEAE to the study drug as not related, possibly related, or probably related. Safety population: all enrolled subjects who received any amount of study medication. End point timeframe: up to 370 days.
Adverse Events Information.
Timeframe for reporting adverse events: From first dose of study treatment up to 370 days (data cutoff); median (full range) duration of treatment was 4.68 (0.2 to 10.9) months. Adverse event reporting additional description: TEAEs (defined as AEs with an onset date on or after the first dose of study medication until study discontinuation) are presented.

UCD patients [2] = assay: HPN-100-009 (Example 2): growth and development, BMI and BSA Z-scores; details: Age 2 Months to <2 Years
Experimental: Assessment of Growth and Development: Baseline and Change from Baseline in Body Mass Index (BMI) Z-Score and Body Surface Area (BSA) Z-Score Up to Month 9.
End point description. To assess any effect of study drug treatment on growth, Z-scores were calculated to express the deviation from a reference population for BMI and BSA. The BMI Z-scores are based on the World Health Organization's Child Growth Standards charts. The BSA Z-Scores are based on weight-for-length charts. Negative Z-scores indicate lower than typical for age and gender while positive scores indicate higher than typical for age and gender. […] End point timeframe: Baseline, Day 7, Month 2, Month 3, Month 4, Month 5, Month 6, Month 9.

[3] = Example 3: urinary PAA concentrations (first full day and up to end of trial)
Experimental: Urinary PAA Concentrations on the First Full Day of RAVICTI Dosing
PK Evaluable Population: all subjects from the safety population with individual concentration-time profiles that allow computation of meaningful PK parameter values. Measurements were taken at hour 0, between 0.5 and 1.5 hours, between 1.5 and 2.5 hours, between 4 and 6 hours, between 7.5 and 8.5 hours, and between 12 and 24 hours after the first dose of the day on day 1 for stable subjects and on day 2 for subjects in HAC.
Urinary PAA Concentrations Up to End of Trial
PK Evaluable Population: all subjects from the safety population with individual concentration-time profiles that allow computation of meaningful PK parameter values. Measurements were taken at day 7, month 1, month 2, month 3, month 4, month 5, month 6, month 9, month 12, month 15, month 18, month 24, and at the end of the trial.

## O=C(CCCc1ccccc1)OCC(COC(=O)CCCc1ccccc1)OC(=O)CCCc1ccccc1 [RAVICTI, benzenebutanoic acid, 1′,1″-(1,2,3-propanetriyl) ester]
UCD patients [1]
  Non-serious AE Anaemia: Occurrences (All): 1
  Non-serious AE Apnoeic Attack: Occurrences (All): 1
  Non-serious AE Cough: Occurrences (All): 1
  Non-serious AE Deep Vein Thrombosis: Occurrences (All): 1
  Non-serious AE Diarrhoea: Occurrences (All): 1
  Non-serious AE Gross Motor Delay: Occurrences (All): 1
  Non-serious AE Hypophagia: Occurrences (All): 1
  Non-serious AE Infections (Gastroenteritis): Occurrences (All): 1
  Non-serious AE Infections (Nasopharyngitis): Occurrences (All): 1
  Non-serious AE Infections (Upper Respiratory Tract): Occurrences (All): 4
  Non-serious AE Infections (Urinary Tract): Occurrences (All): 1
  Non-serious AE Infections (Viral): Occurrences (All): 1
  Non-serious AE Metabolic Acidosis: Occurrences (All): 1
  Non-serious AE Nail Ridging: Occurrences (All): 1
  Non-serious AE Rash: Occurrences (All): 2
  Non-serious AE Rhinorrhoea: Occurrences (All): 1
  Non-serious AE Stoma Site Reaction: Occurrences (All): 1
  Non-serious AE Teething: Occurrences (All): 1
  Non-serious AE Tibia Fracture: Occurrences (All): 1
  Non-serious AE Vesicoureteric Reflux: Occurrences (All): 1
  Non-serious AE Vomiting: Occurrences (All): 3
  Number of Deaths (All Causes): 1
  Serious AE Apnoeic Attack: Deaths Causally Related to Treatment/All: 0/0
  Serious AE Apnoeic Attack: Occurrences Causally Related to Treatment/All: 0/2
  Serious AE Hyperammonaemia: Deaths Causally Related to Treatment/All: 0/0
  Serious AE Hyperammonaemia: Occurrences Causally Related to Treatment/All: 0/8
  Serious AE Infections (Croup): Deaths Causally Related to Treatment/All: 0/0
  Serious AE Infections (Croup): Occurrences Causally Related to Treatment/All: 0/1
  Serious AE Infections (Gastroenteritis): Deaths Causally Related to Treatment/All: 0/0
  Serious AE Infections (Gastroenteritis): Occurrences Causally Related to Treatment/All: 0/1
  Serious AE Infections (Urinary Tract): Deaths Causally Related to Treatment/All: 0/0
  Serious AE Infections (Urinary Tract): Occurrences Causally Related to Treatment/All: 0/1
  Serious AE Infections (Viral): Deaths Causally Related to Treatment/All: 0/0
  Serious AE Infections (Viral): Occurrences Causally Related to Treatment/All: 0/1
  Serious AE Pneumatosis: Deaths Causally Related to Treatment/All: 0/1
  Serious AE Pneumatosis: Occurrences Causally Related to Treatment/All: 0/1
UCD patients [1]; 10 analyzed, up to 370 days
  Subjects with fatal outcome TEAE: 1 Subjects
  Subjects with ≥1 Related TEAE: 4 Subjects
  Subjects with ≥1 Serious Related TEAE: 0 Subjects
  Subjects with ≥1 Serious TEAE: 6 Subjects
  Subjects with ≥1 TEAE: 10 Subjects
  Subjects with ≥1 TEAE Leading to Study Discontinuation: 1 Subjects
UCD patients [2]
  BMI Z-Score baseline: 0.795
  BMI Z-score, Change from Baseline at Day 7: -0.211
  BMI Z-score, Change from Baseline at Month 2: 0.0021
  BMI Z-score, Change from Baseline at Month 3: 0.213
  BMI Z-score, Change from Baseline at Month 4: 0.47
  BMI Z-score, Change from Baseline at Month 5: 0.164
  BMI Z-score, Change from Baseline at Month 6: 0.469
  BSA Z-Score baseline: 0.686
  BSA Z-score, Change from Baseline at Day 7: -0.185
  BSA Z-score, Change from Baseline at Month 2: -0.0437
  BSA Z-score, Change from Baseline at Month 3: 0.119
  BSA Z-score, Change from Baseline at Month 4: 0.381
  BSA Z-score, Change from Baseline at Month 5: 0.198
  BSA Z-score, Change from Baseline at Month 6: 0.398
[3]; Age 0 to <2 months, Day 7
  Urinary PAA concentration: 23.7 (±31.2); μg/mL
[3]; Age 0 to <2 months, End of trial
  Urinary PAA concentration: 11.6 (±9.0); μg/mL
[3]; Age 0 to <2 months, Month 1
  Urinary PAA concentration: 14.6 (±17.2); μg/mL
[3]; Age 0 to <2 months, Month 2
  Urinary PAA concentration: 12.3 (±13.3); μg/mL
[3]; Age 0 to <2 months, Month 3
  Urinary PAA concentration: 14.4 (±10.7); μg/mL
[3]; Age 0 to <2 months, Month 4
  Urinary PAA concentration: 6.4 (±7.1); μg/mL
[3]; Age 0 to <2 months, Month 5
  Urinary PAA concentration: 13.2 (±14.0); μg/mL
[3]; Age 0 to <2 months, Month 6
  Urinary PAA concentration: 5.5 (±00000); μg/mL
[3]; Age 0 to <2 months, Month 9
  Urinary PAA concentration: 11.8 (±8.5); μg/mL
[3]; Age 0 to <2 months, Month 12
  Urinary PAA concentration: 6.0 (±3.8); μg/mL
[3]; Age 0 to <2 months, Month 15
  Urinary PAA concentration: 4.9 (±0.3); μg/mL
[3]; Age 0 to <2 months, first full day, 0.5 to 1.5 hours
  Urinary PAA concentration: 46.2 (±58.6); μg/mL
[3]; Age 0 to <2 months, first full day, 1.5 to 2.5 hours
  Urinary PAA concentration: 62.5 (±42.8), μg/mL
[3]; Age 0 to <2 months, first full day, 4 to 6 hours
  Urinary PAA concentration: 34.6 (±56.2); μg/mL
[3]; Age 0 to <2 months, first full day, 7.5 to 8.5 hours
  Urinary PAA concentration: 22.8 (±25.3); μg/mL
[3]; Age 0 to <2 months, first full day, 12 to 24 hours
  Urinary PAA concentration: 35.2 (±51.0); μg/mL
[3]; Age 0 to <2 months, first full day, Hour 0
  Urinary PAA concentration: 11.1 (±10.4); μg/mL
[3]; Age 2 months to <2 years, Day 7
  Urinary PAA concentration: 5.82 (±2.21); μg/mL
[3]; Age 2 months to <2 years, End of trial
  Urinary PAA concentration: 7.0 (±5.16); μg/mL
[3]; Age 2 months to <2 years, Month 1
  Urinary PAA concentration: 4.44 (±4.61); μg/mL
[3]; Age 2 months to <2 years, Month 2
  Urinary PAA concentration: 3.69 (±1.82); μg/mL
[3]; Age 2 months to <2 years, Month 3
  Urinary PAA concentration: 4.65 (±0.49); μg/mL
[3]; Age 2 months to <2 years, Month 4
  Urinary PAA concentration: 7.14 (±00000); μg/mL
[3]; Age 2 months to <2 years, Month 5
  Urinary PAA concentration: 3.27 (±1.96); μg/mL
[3]; Age 2 months to <2 years, Month 6
  Urinary PAA concentration: 1.59 (±00000); μg/mL
[3]; Age 2 months to <2 years, Month 9
  Urinary PAA concentration: 4.10 (±1.65); μg/mL
[3]; Age 2 months to <2 years, Month 15
  Urinary PAA concentration: 2.04 (±00000); μg/mL
[3]; Age 2 months to <2 years, Month 18
  Urinary PAA concentration: 1.64 (±00000); μg/mL
[3]; Age 2 months to <2 years, first full day, 0.5 to 1.5 hours
  Urinary PAA concentration: 6.50 (±3.39); μg/mL
[3]; Age 2 months to <2 years, first full day, 1.5 to 2.5 hours
  Urinary PAA concentration: 7.29 (±4.10); μg/mL
[3]; Age 2 months to <2 years, first full day, 4 to 6 hours
  Urinary PAA concentration: 2.60 (±2.18); μg/mL
[3]; Age 2 months to <2 years, first full day, 7.5 to 8.5 hours
  Urinary PAA concentration: 4.48 (±4.38); μg/mL
[3]; Age 2 months to <2 years, first full day, 12 to 24 hours
  Urinary PAA concentration: 4.31 (±2.33); μg/mL
[3]; Age 2 months to <2 years, first full day, Hour 0
  Urinary PAA concentration: 18.78 (±27.33); μg/mL
